Measurements reported in ChEMBL document CHEMBL1201862, “PubChem BioAssay data set” (2004).
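96-well plates; 48 h exposure; 5 concentrations. Endpoints by linear interpolation between flanking doses. Not reached: highest tested concentration assigned. GI50 marks 50% less growth.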 Calls of active or inactive are those of the source. Cut-off read from the data, not from the text of the source: active = GI50 up to about 1.1 µM and inactive = higher.

Experiments:
Assay in all cases: NCI-60 cell line screen, 48 h
786-0 = tested on: 786-0
A498 = tested on: A498
A549 = tested on: A549
ACHN = tested on: ACHN
CAKI-1 = tested on: CAKI-1
CCRF-CEM = tested on: CCRF-CEM
COLO 205 = tested on: COLO 205
DLD-1 = tested on: DLD-1
DMS-114 = tested on: DMS-114
DMS-273 = tested on: DMS-273
EKVX = tested on: EKVX
HCT-116 = tested on: HCT-116
HCT-15 = tested on: HCT-15
HL-60 = tested on: HL-60
HOP-18 = tested on: HOP-18
HOP-62 = tested on: HOP-62
HOP-92 = tested on: HOP-92
HT-29 = tested on: HT-29
IGROV-1 = tested on: IGROV-1
K562 = tested on: K562
KM12 = tested on: KM12
LOX IMVI = tested on: LOX IMVI
LXFL 529 = tested on: LXFL 529
M14 = tested on: M14
M19-MEL = tested on: M19-MEL
MOLT-4 = tested on: MOLT-4
Malme-3M = tested on: Malme-3M
NCI-H23 = tested on: NCI-H23
NCI-H460 = tested on: NCI-H460
NCI-H522 = tested on: NCI-H522
OVCAR-3 = tested on: OVCAR-3
OVCAR-4 = tested on: OVCAR-4
OVCAR-5 = tested on: OVCAR-5
OVCAR-8 = tested on: OVCAR-8
RPMI-8226 = tested on: RPMI-8226
RXF 393 = tested on: RXF 393
SF-268 = tested on: SF-268
SF-295 = tested on: SF-295
SF-539 = tested on: SF-539
SK-MEL-28 = tested on: SK-MEL-28
SK-MEL-2 = tested on: SK-MEL-2
SK-MEL-5 = tested on: SK-MEL-5
SK-OV-3 = tested on: SK-OV-3
SN12C = tested on: SN12C
SNB-19 = tested on: SNB-19
SNB-75 = tested on: SNB-75
SNB-78 = tested on: SNB-78
SR = tested on: SR
SW-620 = tested on: SW-620
TK-10 = tested on: TK-10
U-251 = tested on: U-251
UACC-257 = tested on: UACC-257
UACC-62 = tested on: UACC-62
UO-31 = tested on: UO-31
XF498 = tested on: XF498
HCC 2998 = tested on: HCC 2998
KM-20L2 = tested on: KM-20L2
BT-549 = tested on: BT-549
DU-145 = tested on: DU-145
Hs-578T = tested on: Hs-578T
MCF7 = tested on: MCF7
MDA-MB-231 = tested on: MDA-MB-231
MDA-MB-435 = tested on: MDA-MB-435
MDA-N = tested on: MDA-N
NCI-H226 = tested on: NCI-H226
NCI/ADR-RES = tested on: NCI/ADR-RES
PC-3 = tested on: PC-3
T47D = tested on: T47D

Measured: GI50

O=C1NC2(CCCCC2)C2CCCCC=C12 (centres undefined)
inactive: 786-0 > 100 µM | A498 > 100 µM | A549 > 100 µM | ACHN > 100 µM | CAKI-1 > 100 µM | CCRF-CEM > 100 µM | COLO 205 > 100 µM | DLD-1 > 100 µM | DMS-114 > 100 µM | DMS-273 > 100 µM | EKVX > 100 µM | HCT-116 > 100 µM | HL-60 > 100 µM | HOP-18 > 100 µM | HOP-62 > 100 µM | HOP-92 > 100 µM | HT-29 > 100 µM | IGROV-1 > 100 µM | K562 > 100 µM | KM12 > 100 µM | LOX IMVI > 100 µM | LXFL 529 > 100 µM | M14 > 100 µM | M19-MEL > 100 µM | MOLT-4 > 100 µM | Malme-3M > 100 µM | NCI-H23 > 100 µM | NCI-H460 > 100 µM | NCI-H522 > 100 µM | OVCAR-3 > 100 µM | OVCAR-4 > 100 µM | OVCAR-5 > 100 µM | OVCAR-8 > 100 µM | RPMI-8226 > 100 µM | RXF 393 > 100 µM | SF-268 > 100 µM | SF-295 > 100 µM | SF-539 > 100 µM | SK-MEL-28 > 100 µM | SK-MEL-2 > 100 µM | SK-MEL-5 > 100 µM | SK-OV-3 > 100 µM | SN12C > 100 µM | SNB-19 > 100 µM | SNB-75 > 100 µM | SNB-78 > 100 µM | SR > 100 µM | SW-620 > 100 µM | TK-10 > 100 µM | U-251 > 100 µM | UACC-257 > 100 µM | UACC-62 > 100 µM | UO-31 > 100 µM | XF498 > 100 µM
> 100 µM: HCT-15

Cc1ccc(C)c2c1CCc1cc3ccccc3nc1-2
> 100 µM: HCT-15
inactive: 786-0 > 100 µM | A498 > 100 µM | A549 > 100 µM | ACHN > 100 µM | CAKI-1 > 100 µM | CCRF-CEM > 100 µM | COLO 205 > 100 µM | DLD-1 > 100 µM | DMS-114 > 100 µM | EKVX > 100 µM | HCC 2998 > 100 µM | HCT-116 > 100 µM | HOP-18 2.65 µM | HOP-62 > 100 µM | HT-29 > 100 µM | IGROV-1 > 100 µM | K562 > 100 µM | KM-20L2 > 100 µM | KM12 > 100 µM | LXFL 529 > 100 µM | M14 > 100 µM | M19-MEL > 100 µM | MOLT-4 > 100 µM | Malme-3M > 100 µM | NCI-H23 > 100 µM | NCI-H460 > 100 µM | NCI-H522 > 100 µM | OVCAR-3 > 100 µM | OVCAR-4 > 100 µM | OVCAR-5 > 100 µM | OVCAR-8 > 100 µM | RPMI-8226 > 100 µM | SF-268 > 100 µM | SF-295 > 100 µM | SF-539 > 100 µM | SK-MEL-28 > 100 µM | SK-MEL-2 > 100 µM | SK-MEL-5 > 100 µM | SK-OV-3 > 100 µM | SN12C > 100 µM | SNB-19 > 100 µM | SNB-75 98.6 µM | SNB-78 > 100 µM | SW-620 > 100 µM | TK-10 > 100 µM | U-251 > 100 µM | UACC-257 > 100 µM | UACC-62 > 100 µM | UO-31 > 100 µM | XF498 > 100 µM

O=C(O)C1OC(n2cc(F)c(=O)[nH]c2=O)CC1O (centres undefined)
inactive: 786-0 15.6 µM | A498 10.1 µM | A549 2.97 µM | ACHN 2.46 µM | BT-549 99.1 µM | CAKI-1 > 39.5 µM | CCRF-CEM 3.44 µM | COLO 205 61.5 µM | DLD-1 > 100 µM | DMS-114 > 92.3 µM | DMS-273 12.9 µM | DU-145 24.3 µM | EKVX > 82.8 µM | HCT-116 23.1 µM | HL-60 30.8 µM | HOP-18 40.6 µM | HOP-62 5.22 µM | HOP-92 7.13 µM | HT-29 63.8 µM | Hs-578T > 78.7 µM | IGROV-1 > 100 µM | K562 > 86.1 µM | KM-20L2 23.8 µM | KM12 > 95.9 µM | LOX IMVI 8.87 µM | LXFL 529 8.99 µM | M14 29.4 µM | M19-MEL > 83.2 µM | MDA-MB-231 > 39.1 µM | MDA-MB-435 > 93.1 µM | MDA-N > 97.3 µM | MOLT-4 7.73 µM | Malme-3M > 100 µM | NCI-H226 > 83.9 µM | NCI-H23 38.7 µM | NCI-H522 25.9 µM | NCI/ADR-RES 13.2 µM | OVCAR-3 60.1 µM | OVCAR-4 > 100 µM | OVCAR-5 > 100 µM | OVCAR-8 17.5 µM | PC-3 51.8 µM | RPMI-8226 61.7 µM | RXF 393 > 87.9 µM | SF-268 3.35 µM | SF-295 5.47 µM | SF-539 1.87 µM | SK-MEL-28 53.1 µM | SK-MEL-2 > 100 µM | SK-MEL-5 32.4 µM | SK-OV-3 > 94.8 µM | SN12C 17.7 µM | SNB-19 52.5 µM | SNB-75 6.11 µM | SNB-78 > 26.2 µM | SR 6.11 µM | SW-620 > 86.5 µM | T47D > 100 µM | TK-10 > 100 µM | U-251 35.2 µM | UACC-257 > 100 µM | UACC-62 6.15 µM | UO-31 18.6 µM | XF498 > 68.2 µM
77.4 µM: HCT-15
active: HCC 2998 0.574 µM | MCF7 900 nM | NCI-H460 0.447 µM
